# Assay results as given in article PMC11695783 (Frontiers in Pharmacology, 2024).
# Several values for one entry are separate records, joined by “and”; a condition that tells them apart may be missing. Equal entries are not always repeated. Structures can show the parent of a compound that is named as a salt.
# Key:
# [1] = test system: Mycoplasma pneumoniae-infected mice (lung tissue); assay: Histopathological assessment of lung tissue (HPS, response and recovery rates) in M. pneumoniae-infected mice; assay type: in vivo, BALB/c mice; set-up: HPS value (mean) / HPS: scale not given here; details: tiamulin 40 mg/kg PO (fumarate soluble powder); for HPS: individual mice
# Experimental: (§1) Adult BALB/c mice (20–22 g) were divided into a control group, a positive group, and compound 16C groups at low (20 mg/kg), medium (40 mg/kg), and high-dose (80 mg/kg) levels and oral and intramuscular tiamulin treatment groups (40 mg/kg). We formulated the above dose range based on the dose at which tiamulin was approved for injection (10–20 mg/kg) and the dose previously reported (45 mg/kg) ([EMA, 1999]; [Xiao et al., 2016]). In summary, we selected similar doses for compound 16C in vivo study. 40 mg/kg was used as an intermediate value, one-half of it as a low dose, and two times of it as a high dose. To prepare the challenge solution, logarithmic phase culture suspensions were centrifuged at 1700 g for 10 min, and the pellets were suspended in sterile PBS to obtain 1 × 10^9 CFU/mL. Before the challenge, mice were anesthetized with tribromoethanol (250 mg/kg, IP). Mice in the control groups were intratracheally inoculated with sterile PBS, whereas mice in the other groups were intratracheally challenged with 50 μL (1 × 10^9 CFU/mL) M. pneumoniae suspension once a day for 3 days. Compound 16C and tiamulin (tiamulin-IM group) dissolved using the method mentioned in pharmacokinetic studies, and the tiamulin fumarate soluble powder was dissolved in ddH2O for oral administration. After the final challenge, antibiotics were administered at low, medium, and high-dose levels (see above) at 10 a.m. and 10 p.m. daily for 4 consecutive days. Normal saline containing 5% DMSO and 5% Tween-80 was administered as control and positive groups by thigh intramuscular injection. To compare the efficacy of compound 16C and tiamulin under the same route of administration, we used the original tiamulin for intramuscular administration in the same formulation. On the other hand, tiamulin fumarate soluble powder, approved for oral administration to treat animal mycoplasma diseases in China, was administered to mice by gavage. Based on a clinical study of lefamulin in community-acquired bacterial pneumonia (CABP), subjects were administered twice a day and the 96 ± 24 h of starting treatment was an essential point for early clinical response (ECR) ([Paukner et al., 2022]). We therefore stopped treatment at 96 h and sampled at 192 h to explore whether the disease worsened after cessation of treatment. Bronchoalveolar lavage fluid (BALF) and lungs were collected at 0, 96, 192 h (Samples of 0 h were collected before starting treatment, and mice were fed ad libitum without drug treatment during 96–192 h) after the first dose, BALF for cytokine and cytological analysis and lung for histopathological evaluation.
# Lung tissues were collected at 0, 96, and 192 h following drug administration. Lungs were collected from 6 mice in each group at 96 h and 13–15 mice in each group at 192 h. In addition, the lungs of 8 untreated infected mice were taken at 0 h as initial controls. Lung tissues were fixed in 4% paraformaldehyde, and whole-mount sections of paraffin-embedded lungs were stained with hematoxylin and eosin (H&E). The histopathologic score (HPS) was determined according to published protocols by a single pathologist who was unaware of the treatment status and groups of the animals ([Cimolai et al., 1992]). The HPS was based on individual grading of peribronchiolar/bronchial infiltrate, bronchiolar/bronchial luminal exudate, perivascular infiltrate, and parenchymal pneumoniae.
# IFN-γ = IFN-γ in BALF of M. pneumoniae-infected mice (ELISA); assay type: in vivo, BALB/c mice; details: tiamulin 40 mg/kg PO (fumarate soluble powder); for IFN-γ in BALF (AV): group AV; for IFN-γ in BALF: individual mice
# Experimental: as §1
# (§2) Bronchoalveolar lavage was performed according to a standardized method ([Van Hoecke et al., 2017]). BALF was obtained following infusion of 0.5 mL PBS via tracheal cannulation into the lung twice (total 1 mL), and 200 µL was used for mycoplasma counts. The remaining BALF was centrifuged at 300 g for 10 min to separate the debris. The supernatants were stored at −80°C, and the debris was resuspended in the same volume of PBS containing red blood cell lysis buffer. A hemocytometer was used to count total cell numbers in BALF, and cell smears (Diff-Quik staining) were prepared to calculate the percentages of neutrophils, macrophages, and lymphocytes. IFN-γ, TNF-α, and CXCL1 levels in BALF samples were assessed using commercial ELISA kits using guidelines recommended by the manufacturer (Elabscience, Wuhan, China). Parallel data for each experimental group at each time point were obtained from six different mice.
# TNF-α = TNF-α in BALF of M. pneumoniae-infected mice (ELISA); assay type: in vivo, BALB/c mice; details: tiamulin 40 mg/kg PO (fumarate soluble powder), individual mice
# Experimental: as §1, §2
# Mycoplasma pneumoniae = assay: In vivo pharmacodynamic study: Mycoplasma pneumoniae loads in BALF of infected mice; set-up: species or system BALB/c mice; details: tiamulin 40 mg/kg PO (fumarate soluble powder); for MPcounts in BALF (AV): group AV; for MPcounts in BALF: individual mice
# Experimental: as §1, §2
# CXCL1 = CXCL1 in BALF of M. pneumoniae-infected mice (ELISA); assay type: in vivo, BALB/c mice; details: tiamulin 40 mg/kg PO (fumarate soluble powder), individual mice
# Experimental: as §1, §2
# [2] = test system: Mycoplasma pneumoniae strain M129 (ATCC 29342); assay: Time-kill curves; assay type: cell-based; set-up: M. pneumoniae count in time-kill curve: unit not given here
# Experimental: (§3) Mycoplasma pneumoniae strain M129 (ATCC 29342) was obtained from American Type Culture Collection (Manassas, VA, United States) and cultured at 37°C in the presence of 5% CO2 in the modified SP-4 liquid medium (pH 7.4) containing 2.1% (w/v) CM1166 mycoplasma broth base medium (Oxoid, Hants, United Kingdom), 20% (v/v) fetal bovine serum (FBS, Bioexplorer, CO, United States), 0.4% yeast extract (Oxoid), 0.55% (w/v) CMRL 1066 w/L-glutamine culture media powder (MyBioSource, San Diego, CA, United States), 1% D-glucose (Macklin) and 0.004% phenol red (Macklin). […] The solid medium is based on the above formula with the addition of 1% agar, and the characteristic fried egg-like colonies were used for experiments following incubation for 7 d on plates.
# The tubes were incubated at 37°C in 5% CO2 for 72 h, and 200 µL of the culture was removed every 12 h for 10-fold serial dilutions. The diluted cultures were plated on plates for further culture and counted after 7 d. The experiment was repeated three times.
# [3] = test system: Mycoplasma pneumoniae strain M129 (ATCC 29342); assay: Susceptibility assay (broth microdilution MIC, MBC); assay type: cell-based
# Experimental: as §3
# The broth microdilution MIC procedure was performed according to standardized methods for microdilution susceptibility testing of mycoplasma species ([Waites et al., 2012]). […] The concentration of organisms should be determined to approximately 10^6 CFU/mL prior to inoculation into 96-well plates. Due to the action of phenol red, the acidic metabolites of microbial growth can turn the medium yellow. […] The MBC assays were performed based on MICs following endpoint reading and the liquid in the high-concentration wells was removed for bacterial counting.
compound,measurement,setting,value
"C=C[C@]1(C)C[C@@H](OC(=O)CSCCN(CC)CC)[C@]2(C)[C@H](C)CC[C@]3(CCC(=O)[C@H]32)[C@@H](C)[C@@H]1O [Tiamulin-PO, Tiamulin fumarate, reference compound]",HPS,[1]; 96 h,2.5 and 4 and 1 and 3
same,HPS,[1]; 192 h,1.5 and 2 and 1 and 8 and 0 and 3 and 4
same,Recovery,[1]; from HPS at 192 h,6.67%
same,Response,[1]; from HPS at 192 h,86.67%
same,IFN-γ in BALF (AV),IFN-γ; 96 h,32.2599 pg/mL
same,IFN-γ in BALF,IFN-γ; 96 h,34.8842 pg/mL and 17.3704 pg/mL and 63.2217 pg/mL and 29.659 pg/mL and 25.3118 pg/mL and 23.1122 pg/mL
same,IFN-γ in BALF (AV),IFN-γ; 192 h,34.0801 pg/mL
same,IFN-γ in BALF,IFN-γ; 192 h,37.2747 pg/mL and 51.8224 pg/mL and 27.2214 pg/mL and 28.4425 pg/mL and 30.8711 pg/mL and 28.8485 pg/mL
same,TNF-α in BALF,TNF-α; 96 h,13.0598 pg/mL and 17.5743 pg/mL and 24.463 pg/mL and 20.81 pg/mL and 21.310 pg/mL and 10.7269 pg/mL
same,TNF-α in BALF,TNF-α; 192 h,8.7059 pg/mL and 12.3017 pg/mL and 9.398 pg/mL and 5.239 pg/mL and 5.021 pg/mL and 15.24 pg/mL
same,MPcounts in BALF (AV),Mycoplasma pneumoniae; 96 h,4.578 Log10CFU/mL
same,MPcounts in BALF,Mycoplasma pneumoniae; 96 h,4.372 Log10CFU/mL and 4.349 Log10CFU/mL and 5.68 Log10CFU/mL and 4.443 Log10CFU/mL and 4.274 Log10CFU/mL and 4.354 Log10CFU/mL
same,MPcounts in BALF (AV),Mycoplasma pneumoniae; 192 h,4.3846 Log10CFU/mL
same,MPcounts in BALF,Mycoplasma pneumoniae; 192 h,4.0302 Log10CFU/mL and 4.805 Log10CFU/mL and 4.331 Log10CFU/mL and 4.53 Log10CFU/mL and 4.4765 Log10CFU/mL and 4.136 Log10CFU/mL
same,CXCL1 in BALF,CXCL1; 96 h,47.9583 pg/mL and 40.7995 pg/mL and 44.8333 pg/mL and 37.1973 pg/mL and 31.7608 pg/mL and 43.0428 pg/mL
same,CXCL1 in BALF,CXCL1; 192 h,52.4056 pg/mL and 49.740 pg/mL and 60.3659 pg/mL and 36.7459 pg/mL and 45.7272 pg/mL
CC[C@H]1OC(=O)[C@H](C)[C@@H](O[C@H]2C[C@@](C)(OC)[C@@H](O)[C@H](C)O2)[C@H](C)[C@@H](O[C@@H]2O[C@H](C)C[C@H](N(C)C)[C@H]2O)[C@](C)(O)C[C@@H](C)C(=O)[C@H](C)[C@@H](O)[C@]1(C)O [erythromycin],M. pneumoniae count in time-kill curve,"[2]; 1×MIC, time 0",7.138
same,M. pneumoniae count in time-kill curve,"[2]; 1×MIC, time 12",6.145
same,M. pneumoniae count in time-kill curve,"[2]; 1×MIC, time 24",6.32
same,M. pneumoniae count in time-kill curve,"[2]; 1×MIC, time 36",5.109
same,M. pneumoniae count in time-kill curve,"[2]; 1×MIC, time 48",4.8395
same,M. pneumoniae count in time-kill curve,"[2]; 1×MIC, time 60",5.816
same,M. pneumoniae count in time-kill curve,"[2]; 1×MIC, time 72",6.113
same,decrease of bacterial load,"[2]; 2 × MIC, 72 h exposure",3.61 log10 CFU/mL
same,M. pneumoniae count in time-kill curve,"[2]; 2×MIC, time 0",7.138
same,M. pneumoniae count in time-kill curve,"[2]; 2×MIC, time 12",6.411
same,M. pneumoniae count in time-kill curve,"[2]; 2×MIC, time 24",6.275
same,M. pneumoniae count in time-kill curve,"[2]; 2×MIC, time 36",4.753
same,M. pneumoniae count in time-kill curve,"[2]; 2×MIC, time 48",4.288
same,M. pneumoniae count in time-kill curve,"[2]; 2×MIC, time 60",4.145
same,M. pneumoniae count in time-kill curve,"[2]; 2×MIC, time 72",3.53
same,M. pneumoniae count in time-kill curve,"[2]; 4×MIC, time 0",7.138
same,M. pneumoniae count in time-kill curve,"[2]; 4×MIC, time 12",6.078
same,M. pneumoniae count in time-kill curve,"[2]; 4×MIC, time 24",6.148
same,M. pneumoniae count in time-kill curve,"[2]; 4×MIC, time 36",4.203
same,M. pneumoniae count in time-kill curve,"[2]; 4×MIC, time 48",3.916
same,M. pneumoniae count in time-kill curve,"[2]; 4×MIC, time 60",3.913
same,M. pneumoniae count in time-kill curve,"[2]; 4×MIC, time 72",3.415
same,M. pneumoniae count in time-kill curve,"[2]; 8×MIC, time 0",7.138
same,M. pneumoniae count in time-kill curve,"[2]; 8×MIC, time 12",6.379
same,M. pneumoniae count in time-kill curve,"[2]; 8×MIC, time 24",6.145
same,M. pneumoniae count in time-kill curve,"[2]; 8×MIC, time 36",4.163
same,M. pneumoniae count in time-kill curve,"[2]; 8×MIC, time 48",3.977
same,M. pneumoniae count in time-kill curve,"[2]; 8×MIC, time 60",3.326
same,M. pneumoniae count in time-kill curve,"[2]; 8×MIC, time 72",3.283
same,M. pneumoniae count in time-kill curve,"[2]; 16×MIC, time 0",7.138
same,M. pneumoniae count in time-kill curve,"[2]; 16×MIC, time 12",6.732
same,M. pneumoniae count in time-kill curve,"[2]; 16×MIC, time 24",6.1338
same,M. pneumoniae count in time-kill curve,"[2]; 16×MIC, time 36",3.93
same,M. pneumoniae count in time-kill curve,"[2]; 16×MIC, time 48",3.332
same,M. pneumoniae count in time-kill curve,"[2]; 16×MIC, time 60",3.123
same,M. pneumoniae count in time-kill curve,"[2]; 16×MIC, time 72",3.438
same,M. pneumoniae count in time-kill curve,"[2]; 32×MIC, time 0",7.138
same,M. pneumoniae count in time-kill curve,"[2]; 32×MIC, time 12",6.133
same,M. pneumoniae count in time-kill curve,"[2]; 32×MIC, time 24",5.307
same,M. pneumoniae count in time-kill curve,"[2]; 32×MIC, time 36",3.588
same,M. pneumoniae count in time-kill curve,"[2]; 32×MIC, time 48",3.619
same,M. pneumoniae count in time-kill curve,"[2]; 32×MIC, time 60",3.2228
same,M. pneumoniae count in time-kill curve,"[2]; 32×MIC, time 72",3.181
same,M. pneumoniae count in time-kill curve,"[2]; 64×MIC, time 0",7.138
same,M. pneumoniae count in time-kill curve,"[2]; 64×MIC, time 12",6.741
same,M. pneumoniae count in time-kill curve,"[2]; 64×MIC, time 24",5.886
same,M. pneumoniae count in time-kill curve,"[2]; 64×MIC, time 36",3.638
same,M. pneumoniae count in time-kill curve,"[2]; 64×MIC, time 48",3.377
same,M. pneumoniae count in time-kill curve,"[2]; 64×MIC, time 60",2.841
same,M. pneumoniae count in time-kill curve,"[2]; 64×MIC, time 72",2.68
same,concentration at which bactericidal effect was achieved,"[2]; static time-kill, 72 h",2 × MIC
same,MIC,"[3]; M. pneumoniae strain M129, ≈96 h, read-out: MIC",0.016 µg/mL
same,MBC,"[3]; M. pneumoniae strain M129, read-out: MBC",0.032 µg/mL
